Reference: PMC12612973, “Inhibition of Human Amylin Aggregation: In Silico and In Vitro Studies” (ACS Omega, 2025)
Values joined by “and” are separate entries in the source; they are usually repeats but may differ in a detail not shown here. Equal values may be shown once.

Assays:
human amylin (hIAPP) [1] = biological target: T1, human amylin (hIAPP) (Homo sapiens, UniProt P10997); assay: Thioflavin T (ThT) fluorescence assay of amylin aggregation; assay type: biochemical; conditions: for inhibition at 10 µM: read-out: ThT inhibition % (mean ± SEM), compound 10 μM, amylin 15 μM, 36 h incubation, 3 trials; for ThT inhibition % (mean ± SEM): compound 10 μM, amylin 15 μM, 36 h incubation, 3 trials
T1 construct: purchased Bachem USA
T1 sequence (P10997 34-70 limits assumed): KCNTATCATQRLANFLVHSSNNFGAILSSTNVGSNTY
Description: (§1) A stock solution of amylin (1 mM) (purchased from Bachem USA), peptide sequence: […] amide (with disulfide bond between Cys2 and Cys7), was prepared in 100% hexafluoroisopropyl alcohol (HFIP) (purchased from Sigma-Aldrich) and stored at −20 °C. , Aliquots of amylin peptide were filtered through a 0.22 μm filter from the stock solution and freeze-dried. For kinetic experiments, 15 μM of amylin was prepared in 50 mM Tris-HCl buffer (pH 7.4), as investigated in previous studies by Chaari et al., , Samples of amylin were prepared in the presence or absence of inhibitors. Each compound was dissolved in DMSO and further diluted with the buffer used to solubilize the amylin. The final mixture contained 15 μM amylin, 10 μM of the test compound, 2% DMSO or 15 μM amylin, and 2% DMSO without the compound (negative control). Also 15 μM amylin, 10 μM of oleuropein aglycone and 2% DMSO was used as a positive control. The prepared solutions were incubated under physiological conditions (pH 7.4 and 37 °C) for amylin aggregation. Samples were incubated for 36 h to test for amylin aggregation, and measurements were conducted at different time points.
Amylin aggregation was monitored by characteristic changes in Thioflavin T (ThT) fluorescence intensity. A ThT stock solution (15 μM) was prepared in deionized water at pH 7.4. The amylin samples were mixed with the ThT solution and allowed to incubate. ThT fluorescence was measured using the PerkinElmer model LS 55 fluorescence spectrophotometer (PerkinElmer, USA), with an excitation wavelength of 440 nm and an emission wavelength of 480 nm. ,− The emission and excitation slits were set to 5 nm, and a 1 cm cuvette was used for all experiments. Nonspecific background fluorescence was subtracted from the samples using appropriate blanks in the absence of proteins. Each experiment was performed in triplicate.

human amylin (hIAPP) [2] = biological target: T1, human amylin (hIAPP); assay: Dynamic light scattering (DLS) assay of amylin aggregation; assay type: biochemical; conditions: 36 h incubation; for inhibition at 10 µM: compound 10 μM, amylin 15 μM, 3 trials, read-out: DLS inhibition % (mean ± SEM)
Description: as §1
DLS (Zetasizer, Malvern) was used at a wavelength of 633 nm to measure the average diffusion coefficient distribution of amylin particles and the aggregation percentage. Samples were diluted 10-fold, and 50 μL was placed into a 96-well plate. The total light scattering intensity at a 90° angle was collected using a 10 s averaging acquisition time. Particle translational diffusion coefficients were calculated from autocorrelated light intensity data (usually 30–40 points) and converted to the hydrodynamic radius (R h) using the Stokes–Einstein equation. A distribution plot of intensity versus R h was calculated using the Sedfit 9.3 analysis software, and intensity-weighted mean R h values were obtained from each peak.

human amylin (hIAPP) [3] = biological target: T1, human amylin (hIAPP); assay: Kinetic analysis of amylin aggregation (ThT, two-step autocatalytic aggregation model); assay type: biochemical; conditions: mean ± S.D.; for t 0 (time point when the aggregation starts): 10% of highest ThT fluorescence; for t 1/2 (aggregation halftime): 50% of highest ThT fluorescence; for t 1 (aggregation endpoint): 90% of highest ThT fluorescence; for k / k e (elongation constant) / k n (nucleation constant) / ρ (ratio of kn to k): ThT data, autocatalytic aggregation model
Description: Kinetic analysis was performed according to the model of autocatalytic aggregation. According to Sabaté et al., aggregation is a two-step process, comprising nucleation (described by the k n constant) and fibrillation phases (represented by the k e constant). Two constants (k n and k e) are calculated using the eq : 5 f=ρ{e^[(1+ρ)kt]−1}/{1+ρe^[(1+ρ)kt]} where k = k e a (where a represents the initial concentration of the aggregating peptide), f stands for a fraction of the fibrillar form in the system, and ρ denotes the dimensionless ratio of k n to k. The parameters k and ρ were calculated first, then k n and k e.
Data were normalized as a fraction of the highest fluorescence from the three trials and fitted into the model of autocatalytic aggregation. The same procedure was repeated for the remaining trials. The second calculation aimed to find the time parameters of the aggregation process: t 0 (time point when the aggregation starts), t 1/2 (aggregation halftime), and t 1 (aggregation endpoint). t 0, t 1/2, and t 1 were calculated as 10%, 50%, and 90% of the highest fluorescence measurements from the three trials, respectively. All calculations were performed using GraphPad Prism 9.5.1, Statistica 13.3.721.1, and Microsoft Excel 2304.

human amylin (hIAPP) [4] = biological target: T1, human amylin (hIAPP); assay: Thioflavin T (ThT) fluorescence assay of amylin aggregation; assay type: biochemical; conditions: read-out: IC50 of amylin aggregation inhibition
Aβ = test system: Aβ; set-up: method as in Panek et al.; conditions: ref Panek et al.; cited from earlier work
Pancreatic INS-1E cells = assay: MTT cytotoxicity assay of amylin aggregates aged with or without inhibitors; assay type: cell-based
Description: In this study, we utilized Pancreatic INS-1E cells (Department of Cell Physiology and Metabolism, University Medical Center, Switzerland) due to their close physiological similarity to native β-cells, making them highly relevant to our experimental objectives. Pancreatic INS-1E cells were grown in RPMI 1640 medium, supplemented with 2 mM glutamine, 5% fetal calf serum, 10 mM HEPES (pH 7.4), 1 mM sodium pyruvate, 50 μM 2-mercaptoethanol, 100 units/mL penicillin, and 0.1 mg/mL streptomycin. The culturing environment was maintained at 37 °C, 5% CO2, pH 7.4.
The toxicity of human amylin aggregates in the presence or absence of different compounds in the presence of 2% DMSO was assessed by the 3-(4,5-dimethylthiazol-2-yl)-2,5-diphenyltetrazolium bromide (MTT) reduction assay. The cells were cultured and then seeded into 96-well plates and grown for 24 h prior to exposure to different intermediates of amylin or a mixture of amylin with the MTDLs. The final amylin concentration within the culture medium was 5 μM. Cell viability was expressed as the percentage of MTT reduction, using cells treated with the same buffer volume as a reference (100% MTT reduction). The values (averages ± S.D.) were obtained from three independent experiments.

COc1ccc(CNCC(O)CCN2CCN(Cc3ccccc3)CC2)cc1 (stereo not shown) [Compound 10] gave an inhibition at 10 µM (human amylin (hIAPP) [1]) of 31.1 ± 0.9% and an inhibition at 10 µM (human amylin (hIAPP) [2]) of 27.8 ± 3%.
With OC(CCN1CCN(C(c2ccccc2)c2ccccc2)CC1)CNCc1ccccc1 (stereo not shown) [Compound 11] the inhibition at 10 µM (human amylin (hIAPP) [1]) was 20.8 ± 0.8% and the inhibition at 10 µM (human amylin (hIAPP) [2]) was 19 ± 1.8%.
COc1ccc(CNCC(O)CCN2CCN(C(c3ccccc3)c3ccccc3)CC2)cc1 (stereo not shown) [Compound 12] showed an inhibition at 10 µM (human amylin (hIAPP) [1]) of 11.9 ± 0.7% and an inhibition at 10 µM (human amylin (hIAPP) [2]) of 20.7 ± 2%.
For CC(C)(C)c1cccc(CNCC(O)CCN2CCN(C(c3ccccc3)c3ccccc3)CC2)c1 (stereo not shown) [Compound 13], the “ThT inhibition % (mean ± SEM)” value (human amylin (hIAPP) [1]) was 74.7 ± 0.7%, the inhibition at 10 µM (human amylin (hIAPP) [1]) was ~75% and the inhibition at 10 µM (human amylin (hIAPP) [2]) was 86.7 ± 4.5%. The “t 0 (time point when the aggregation starts)” value (human amylin (hIAPP) [3]) was 12.49 ± 0.19 h, the “t 1/2 (aggregation halftime)” value (human amylin (hIAPP) [3]) was 20.41 ± 0.20 h and the “t 1 (aggregation endpoint)” value (human amylin (hIAPP) [3]) was 28.41 ± 0.23 h. For the same compound, the k (human amylin (hIAPP) [3]) was 0.2729 ± 0.0025 h^–1, the “k e (elongation constant)” value (human amylin (hIAPP) [3]) was 18195 ± 165 M^–1h^–1 and the “k n (nucleation constant)” value (human amylin (hIAPP) [3]) was 0.0011 ± 0.0001 h^–1. For the same compound, the “ρ (ratio of kn to k)” value (human amylin (hIAPP) [3]) was 0.0038 ± 0.0002, the IC50 (human amylin (hIAPP) [4]) was 3.75 µM and the “inhibition of Aβ aggregation in the ThT assay” value (Aβ) was 81.4% and ~82%.
For COc1ccc(CNCC(O)CCN2CCN(C(c3ccc(F)cc3)c3ccc(F)cc3)CC2)cc1 (stereo not shown) [Compound 14], the inhibition at 10 µM (human amylin (hIAPP) [1]) was 5 ± 4.4% and the inhibition at 10 µM (human amylin (hIAPP) [2]) was 7.8 ± 0.5%.
OC(CNCc1ccccc1)CNCC(c1ccccc1)c1ccccc1 (stereo not shown) [Compound 15] gave an inhibition at 10 µM (human amylin (hIAPP) [1]) of 37.4 ± 0.4% and an inhibition at 10 µM (human amylin (hIAPP) [2]) of 25 ± 2.5%.
For OC(CNCCC(c1ccccc1)c1ccccc1)CNCc1ccccc1 (stereo not shown) [Compound 16], the inhibition at 10 µM (human amylin (hIAPP) [1]) was 58.8 ± 0.7%, the “average particle size of amylin by DLS” value (human amylin (hIAPP) [2]; amylin + compound) was 10 nm and the inhibition at 10 µM (human amylin (hIAPP) [2]) was 77.9 ± 6%. For the same compound, the “t 0 (time point when the aggregation starts)” value (human amylin (hIAPP) [3]) was 11.03 ± 0.22 h, the “t 1/2 (aggregation halftime)” value (human amylin (hIAPP) [3]) was 18.22 ± 0.28 h and the “t 1 (aggregation endpoint)” value (human amylin (hIAPP) [3]) was 25.52 ± 0.37 h. For the same compound, the k (human amylin (hIAPP) [3]) was 0.2996 ± 0.0048 h^–1, the “k e (elongation constant)” value (human amylin (hIAPP) [3]) was 19973 ± 320 M^–1h^–1 and the “k n (nucleation constant)” value (human amylin (hIAPP) [3]) was 0.0012 ± 0.0001 h^–1. The “ρ (ratio of kn to k)” value (human amylin (hIAPP) [3]) was 0.0042 ± 0.0003 and the IC50 (human amylin (hIAPP) [4]) was 3.1 µM.
For CC(C)(C)c1cccc(CNCC(O)CNCC(c2ccccc2)c2ccccc2)c1 (stereo not shown) [Compound 17], the “ThT inhibition % (mean ± SEM)” value (human amylin (hIAPP) [1]) was 88.1 ± 0.9%, the inhibition at 10 µM (human amylin (hIAPP) [1]) was > 88% and the inhibition at 10 µM (human amylin (hIAPP) [2]) was 99 ± 6.5%. For the same compound, the “t 0 (time point when the aggregation starts)” value (human amylin (hIAPP) [3]) was 13.13 ± 1.09 h, the “t 1/2 (aggregation halftime)” value (human amylin (hIAPP) [3]) was 21.25 ± 0.20 h and the “t 1 (aggregation endpoint)” value (human amylin (hIAPP) [3]) was 29.48 ± 1.02 h. For the same compound, the k (human amylin (hIAPP) [3]) was 0.2687 ± 0.0374 h^–1, the “k e (elongation constant)” value (human amylin (hIAPP) [3]) was 17913 ± 2489 M^–1h^–1 and the “k n (nucleation constant)” value (human amylin (hIAPP) [3]) was 0.0010 ± 0.0006 h^–1. The “ρ (ratio of kn to k)” value (human amylin (hIAPP) [3]) was 0.0040 ± 0.0028 and the IC50 (human amylin (hIAPP) [4]) was 3.65 µM.
OC(CCNCC(c1ccccc1)c1ccccc1)CNCc1ccccc1 (stereo not shown) [Compound 19] gave an inhibition at 10 µM (human amylin (hIAPP) [1]) of 33.7 ± 1.1% and an inhibition at 10 µM (human amylin (hIAPP) [2]) of 27.5 ± 3%.
In the case of OC(CCNCCC(c1ccccc1)c1ccccc1)CNCc1ccccc1 (stereo not shown) [Compound 20], the inhibition at 10 µM (human amylin (hIAPP) [1]) is reported as 12.6 ± 0.4% and the inhibition at 10 µM (human amylin (hIAPP) [2]) is reported as 20.4 ± 2.5%.
For CC(C)(C)c1cccc(CNCC(O)CCNCC(c2ccccc2)c2ccccc2)c1 (stereo not shown) [Compound 21], the “ThT inhibition % (mean ± SEM)” value (human amylin (hIAPP) [1]) was 90.8 ± 1.4%, the inhibition at 10 µM (human amylin (hIAPP) [1]) was > 88% and the inhibition at 10 µM (human amylin (hIAPP) [2]) was 99.2 ± 6%. For the same compound, the “t 0 (time point when the aggregation starts)” value (human amylin (hIAPP) [3]) was 9.54 ± 0.29 h, the “t 1/2 (aggregation halftime)” value (human amylin (hIAPP) [3]) was 18.66 ± 0.56 h and the “t 1 (aggregation endpoint)” value (human amylin (hIAPP) [3]) was 28.19 ± 1.42 h. The k (human amylin (hIAPP) [3]) was 0.2273 ± 0.0221 h^–1, the “k e (elongation constant)” value (human amylin (hIAPP) [3]) was 15155 M^–1h^–1 and 15155 ± 1477 M^–1h^–1 and the “k n (nucleation constant)” value (human amylin (hIAPP) [3]) was 0.003 h^–1 and 0.0032 ± 0.0007 h^–1. The “ρ (ratio of kn to k)” value (human amylin (hIAPP) [3]) was 0.0145 ± 0.0044, the “cell viability difference versus the sample with amylin fibrils” value (Pancreatic INS-1E cells; INS-1E cells 24 h, amylin aggregates aged 36 h with 2.92 μM compound 18 or 3.31 μM compound 21) was “approximately 30 % points” and the “effect on INS-1E cell viability in presence of amylin” value (Pancreatic INS-1E cells; INS-1E cells cultured with the MTDLs) was “retained cell viability”. For the same compound, the IC50 (human amylin (hIAPP) [4]) was 3.53 µM.
